Reference: US20050118129A1, “Gentle and enhanced preservative systems” (priority 2003, published 2005)

What follows are molecules tested on Staphylococcus aureus (ATCC 6538) (assay: Comparison of strength between saccharides, preservative efficacy against bacteria).
Assay type: cell-based
Protocol: (§1) The preservative efficacy of various saccharides and a cationic polysaccharide were tested against one bacteria, i.e., Staphylococcus aureus (ATCC 6538), and against one fungus, i.e., Aspergillus niger (ATCC 16404). Acceptance criteria for the bacteria established that the number of viable bacteria, recovered per ml, be reduced by not less than 3.0 logs at 14 days. After the rechallenge at day 14, the concentration of bacteria shall be reduced by at least 3.0 logs at day 28. Acceptance criteria for the fungus established that the number of viable yeasts and molds, recovered per ml, remain at or below the initial concentrations within an experimental error of ±0.5 logs within 14 days. After day 28, the concentration of mold and yeast shall remain at or below the concentrations after rechallenge within experimental error of ±0.5 logs. Results of the saccharide/cationic polysaccharide preservative efficacy test are set forth below in Table 1.
In the case of `O=C[C@H](O)[C@@H](O)[C@H](O)[C@H](O)CO` [D-Glucose], the “Log Reduction of Staphylococcus aureus (ATCC 6538) at 28 Days (Bacteria)” value (from here on “Log Reduction of Staphylococcus aureus”) is reported as 1.9 Log. `O=C[C@H](O)[C@@H](O)[C@@H](O)[C@H](O)CO` [Galactose] was tested, and the “Log Reduction of Staphylococcus aureus” value was 2.2 Log. For `OC[C@@H](O)[C@@H](O)[C@H](O)[C@H](O)CO` [Mannitol], the “Log Reduction of Staphylococcus aureus” value was 2.0 Log. In the case of `CO[C@H]1O[C@H](CO)[C@@H](O)[C@H](O)[C@H]1O` [Methyl-α-D-gluco-pyranose], the “Log Reduction of Staphylococcus aureus” value is reported as 1.7 Log. In the case of `CO[C@H]1O[C@H](CO)[C@@H](O)[C@H](O)[C@H]1O` [Methyl-α-D-gluco-pyranoside], the “Log Reduction of Staphylococcus aureus” value is reported as 1.2 Log. With `OC[C@H]1O[C@H](O[C@H]2O[C@H](CO)[C@@H](O)[C@H](O)[C@H]2O)[C@H](O)[C@@H](O)[C@@H]1O` [Trehalose] the “Log Reduction of Staphylococcus aureus” value was 1.3 Log. In the case of `O=C(CO)[C@@H](O[C@H]1O[C@H](CO)[C@@H](O)[C@H](O)[C@H]1O)[C@H](O)[C@H](O)CO` [Turanose], the “Log Reduction of Staphylococcus aureus” value is reported as 1.4 Log.

The molecules below were run on Aspergillus niger (ATCC 16404) (assay: Comparison of strength between saccharides, preservative efficacy against fungus).
Assay type: cell-based
Protocol: as §1
For `O=C[C@H](O)[C@@H](O)[C@H](O)[C@H](O)CO` [D-Glucose], the “Log Reduction of Aspergillus niger (ATCC 16404) at 28 Days (Fungus)” value (shortened to “Log Reduction of Aspergillus niger”) was 3.7 Log. With `O=C[C@H](O)[C@@H](O)[C@@H](O)[C@H](O)CO` [Galactose] the “Log Reduction of Aspergillus niger” value was 1.4 Log. `OC[C@@H](O)[C@@H](O)[C@H](O)[C@H](O)CO` [Mannitol] was tested, and the “Log Reduction of Aspergillus niger” value was 2.4 Log. In the case of `CO[C@H]1O[C@H](CO)[C@@H](O)[C@H](O)[C@H]1O` [Methyl-α-D-gluco-pyranose], the “Log Reduction of Aspergillus niger” value is reported as 1.6 Log. In the case of `CO[C@H]1O[C@H](CO)[C@@H](O)[C@H](O)[C@H]1O` [Methyl-α-D-gluco-pyranoside], the “Log Reduction of Aspergillus niger” value is reported as 2.9 Log. For `OC[C@H]1O[C@H](O[C@H]2O[C@H](CO)[C@@H](O)[C@H](O)[C@H]2O)[C@H](O)[C@@H](O)[C@@H]1O` [Trehalose], the “Log Reduction of Aspergillus niger” value was 2.0 Log. With `O=C(CO)[C@@H](O[C@H]1O[C@H](CO)[C@@H](O)[C@H](O)[C@H]1O)[C@H](O)[C@H](O)CO` [Turanose] the “Log Reduction of Aspergillus niger” value was 2.1 Log.
